From patent publication US20040137454A1, “Assay for drug-induced recoding” (priority 2004, published 2004) come the findings set out here.

In test [1] the test system is antizyme 1 and 2 frameshifting sequences with upstream stimulatory sequences deleted. Kind of test: Dual luciferase frameshifting assay, upstream deletion constructs p2Lucaz1usdel and p2Lucaz2usdel. In kind it is cell-based, human. The conditions noted are these: 1 mM spermidine added to DFMO (2.5 mM) treated HEK293 cells. An excerpt: (§1) Referring now to FIG. 2, the construction of illustrative embodiments of the dual reporter assay constructs is depicted. These illustrative embodiments use the renilla and firefly luciferases as first and second reporters, respectively. The sequences referred to herein as SEQ ID NO:1 and SEQ ID NO:2, which comprise antizyme 1 and 2 polyamine-regulated frameshifting sequences, respectively, were cloned into the SalI and BamHI sites of the p2Luc vector (U.S. Pat. No. 6,143,502) to produce plasmids p2Lucaz1 and p2Lucaz2. The shift site (TCCT), corresponding to UCCU in the corresponding mRNA, is present at nucleotides 55-58 of each of these sequences. […]
(§2) To determine the effectiveness of the role of sequences flanking the frameshift site in inducing frameshifting levels, dual luciferase constructs were made in which antizyme sequences preceding and following the antizyme 1 and 2 frameshift sites were deleted. […] As described above, these constructs were then transiently transfected into HEK293 cells grown in standard growth nedia or media with 2.5 mM DFMO, and frameshift levels were measured following the addition of exogenously added spermidine (1 mM).

In test [2] the test system is antizyme 2 polyamine-regulated frameshifting sequence. The test is described as follows: Dual luciferase reporter assay of antizyme 2 +1 frameshifting (p2Lucaz2) in transfected cells. To be noted: for Effect on amount of frameshifting, p2Lucaz2: cultured mammalian cells, controls 2.5 mM DFMO. In kind it is cell-based, human. The text has this:
Referring now to FIG. 2, the construction of illustrative embodiments of the dual reporter assay constructs is depicted. These illustrative embodiments use the renilla and firefly luciferases as first and second reporters, respectively. The sequences referred to herein as SEQ ID NO:1 and SEQ ID NO:2, which comprise antizyme 1 and 2 polyamine-regulated frameshifting sequences, respectively, were cloned into the SalI and BamHI sites of the p2Luc vector (U.S. Pat. No. 6,143,502) to produce plasmids p2Lucaz1 and p2Lucaz2. The shift site (TCCT), corresponding to UCCU in the corresponding mRNA, is present at nucleotides 55-58 of each of these sequences. Constructs were also prepared with deletions of the upstream stimulatory sequences of the antizyme 1 polyamine-regulated frameshifting sequence (SEQ ID NO:3) and the antizyme 2 polyamine-regulated frameshifting sequence (SEQ ID NO:4), resulting in plasmids p2Lucaz1usdel and p2Lucaz2usdel. Other constructs were prepared with deletions of the downstream pseudoknot stimulatory sequences of the antizyme 1 polyamine-regulated frameshifting sequence (SEQ ID NO:5) and the antizyme 2 polyamine-regulated frameshifting sequence (SEQ ID NO:6), resulting in plasmids p2Lucaz1pkdel and p2Lucaz2pkdel. Zero frame (“0 frame”) controls for each construct were identical except that the first T of the stop codon following the shift site was deleted. […]
Cultured mammalian cells are transfected with the dual construct according to method well known in the art. Parallel cell lines are transfected with the +1 reading frame and 0 reading frame construct according to methods well known in the art. […] Cells are then lysed and the luciferase activity measured by light emission after injection of luminescence substrate, as is well known in the art. […] This provides a quantitative assay for measuring the polyamine-induced recoding. […]
(In general: In a reporter assay the amount or activity of a reporter protein is the signal.)

The subject of the next test is HEK293 cells. The test is described as follows: Intracellular polyamine levels by HPLC analysis of whole cell lysates. The test is classed as cell-based, human. On the procedure: Polyamine levels were also measured for comparison. Intracellular polyamine levels were determined by HPLC analysis of whole cell lysates. Cells (3×10^5) were grown in 6-well plates for 48 hours at 37° C. in an atmosphere of 5% CO2, either in the presence or absence of DFMO. Cells were then mock transfected as described above. […] Cells were allowed to grow for 12 hours, and 5×10^6 cells were harvested and washed three times with phosphate buffered saline.

A further test deals with endogenous antizyme. Kind of test: Endogenous antizyme levels measured as ODC-inhibitory activity in HEK293 cell extracts. In kind it is cell-based, human. The conditions noted are these: HEK293 cells, 24 hours; for Antizyme: 1 mM aminoguanidine. On the procedure:
The endogenous antizyme levels were also measured for comparison. HEK293 cells were plated in 10 cm dishes with 10 ml of the growth media as described above at a concentration of 3×10^5 cells/ml and incubated for 24 hours. The medium was replaced with fresh medium supplemented with 1 mM aminoguanidine and various concentrations of either putrescine, spermidine, or spermine. The dishes were incubated further for 24 hours, placed on ice, washed with phosphate buffered saline twice, drained completely, and cells were disrupted by 3 freeze/thaw cycles. Then 0.5 ml of cell extract buffer (25 mM Tris-HCl, pH 7.2, 1 mM dithiothreitol, 1 mM EDTA, and 0.01% Tween 80) was added, and the cell suspension was centrifuged at 15,000 rpm for 30 minutes at 4° C. Antizyme activities were measured as ODC-inhibitory activities that could be reversed by excess antizyme inhibitor. Cell extracts (40 μl) were mixed with 2.0 units of mouse kidney ODC in duplicate. To one set, 0.1 μg of GST-antizyme inhibitor protein was added. ODC activity of each mixture was assayed by measuring the release of ^14CO2 from L-[1-^14C] ornithine (as described in I. P. Ivanov et al., Discovery of a Spermatogenesis Stage-specific Ornithine Decarboxylase Antizyme: Antizyme 3, 97 Proc. Nat'l Acad. Sci. USA 97, 4808-4813 (2000); I. P. Ivanov et al., Conservation of Polyamine Regulation by Translational Frameshifting from Yeast to Mammals, 19 EMBO J. 1907-1917 (2000); S. Matsufuji et al., Reading Two Bases Twice: Mammalian Antizyme Frameshifting in Yeast, 15 EMBO J. 1360-1370 (19%)), and expressed as specific activities. Protein concentrations of the extracts were determined with the BCA protein assay kit (Pierce) using bovine serum albumin as a standard. One unit of ODC and antizyme was defined as the activity releasing […] CO2 per hour and the activity inhibiting 1 unit of ODC, respectively.

In test [3] the test system is antizyme 1 polyamine-regulated frameshifting sequence. The test is described as follows: Dual luciferase reporter assay of antizyme 1 +1 frameshifting (p2Lucaz1) in transfected cells. In kind it is cell-based, human. To be noted: for Maximal frameshifting stimulation: HEK293, standard growth conditions without DFMO, 0.01-0.1 mM spermine, 0.1-2 mM spermidine, 0.5-2 mM putrescine; for Fold increase of antizyme 1 frameshifting upon polyamine addition to DFMO pre-treated cells: HEK293 pre-treated with DFMO, 0.1 mM spermine, 2 mM spermidine, 2 mM putrescine; for Effect on amount of frameshifting, p2Lucaz1: cultured mammalian cells, controls 2.5 mM DFMO. An excerpt: Referring now to FIG. 2, the construction of illustrative embodiments of the dual reporter assay constructs is depicted. These illustrative embodiments use the renilla and firefly luciferases as first and second reporters, respectively. […] Pat. […] The shift site (TCCT), corresponding to UCCU in the corresponding mRNA, is present at nucleotides 55-58 of each of these sequences. […] Zero frame (“0 frame”) controls for each construct were identical except that the first T of the stop codon following the shift site was deleted. It will be appreciated that the DNA constructs disclosed herein are merely examples of dual reporter constructs comprising two reporter-encoding DNA segments separated by a cloning site containing a polyamine-regulated frameshifting sequence, and that all such constructs are included within the scope of the present invention. Cultured mammalian cells are transfected with the dual construct according to method well known in the art. Parallel cell lines are transfected with the +1 reading frame and 0 reading frame construct according to methods well known in the art. The cells are then incubated under varying conditions to test the effect of such conditions on the polyamine regulation. Cells are then lysed and the luciferase activity measured by light emission after injection of luminescence substrate, as is well known in the art. […] This provides a quantitative assay for measuring the polyamine-induced recoding. […] Similarly, mouse germ line (GC-2) cells were obtained from the American Tissue Type culture Collection (Manassas, Va.). […] All cells were incubated at 37° C. in an atmosphere of 5% CO2 All media and antibiotics were obtained from Invitrogen Life Technologies (Carlsbad, Calif.), and all sera were obtained from HyClone Inc. (Logan Utah). The cells were transfected with the dual luciferase constructs p2Lucaz1 and p2Lucaz2 using LIPOFECTIN reagent (Invitrogen Life Technologies). LIPOFECTIN reagent is a 1:1 (w/w) liposome formulation of the cationic lipid […],-trimethylammonium chloride (DOTMA), and dioleoyl phosphotidylethanolamine (DOPE) in membrane filtered water. Cells (0.3×10^5) were plated in 48-well, treated tissue culture plates and grown for 48 hours as described above. DFMO (2.5 mM) was added to half the plates of each cell line to inhibit polyamine synthesis. […] Cells were lysed using passive lysis buffer and luciferase activity was determined using the Dual Luciferase reporter assay (Promega, Madison, Wis.) as described in Grentzmann, supra. For all reactions, light emission was measure between 2 and 12 seconds after 100 μl of luminescence substrate was injected.

The subject of test [4] is antizyme 1 and 2 frameshifting sequences with downstream pseudoknot deleted. The test is described as follows: Dual luciferase frameshifting assay, downstream pseudoknot deletion constructs p2Lucaz1pkdel and p2Lucaz2pkdel. The conditions noted are these: 1 mM spermidine added to DFMO (2.5 mM) treated HEK293 cells. The test is classed as cell-based, human.
Source text: as §1, §2

Test [5] has as its system antizyme 3 frameshifting sequence. Kind of test: Dual luciferase reporter assay with p2Luc containing the antizyme 3 frameshifting sequence. In kind it is cell-based. To be noted: cultured mammalian cells, controls 2.5 mM DFMO.

As to `NCCCCNCCCN` [Spermidine, spermidine], in test [1], the “Stimulation of frameshifting, upstream deletion constructs” value is on record as 5-6 fold. In addition, the “Antizyme 2 frameshifting response compared with antizyme 1” value in test [2] (HEK293, with or without DFMO, FIG. 4) was “showed a very similar response to polyamine depletion and addition”. In addition, the results for the “Increase of intracellular spermidine levels over control cells” value in the test with HEK293 cells (1 mM spermidine added to DFMO treated HEK293 cells) and in the test with HEK293 cells (1 mM spermidine added to untreated (no DFMO) HEK293 cells) were 1.5 fold and 1.7 fold, respectively. For the same compound, the “Effect on intracellular putrescine and spermine levels” value with HEK293 cells (1 mM spermidine added to DFMO treated or untreated HEK293 cells) was “restored putrescine and spermine levels to nearly that of control cells”. For the same compound, the “Fold Increase (antizyme vs control)” value with endogenous antizyme (1 mM exogenous polyamine) came out at 1.1; in the test on endogenous antizyme (2 mM exogenous polyamine) it was 1.6. Besides, the Antizyme in the test on endogenous antizyme (1 mM exogenous polyamine) is given as 23 ± 0.2 units/mg; with endogenous antizyme (2 mM exogenous polyamine), 3.4 units/mg. The Maximal frameshifting stimulation result in test [3] is recorded as “approximately 40%”. For the same compound, the “Fold increase of antizyme 1 frameshifting upon polyamine addition to DFMO pre-treated cells” value in test [3] is reported as approximately 10 fold. Moreover, the “Stimulation of frameshifting, downstream (pseudoknot) deletion constructs” value in test [4] was “approximately 2 fold”.
Take `NCCCNCCCCNCCCN` [Spermine, spermine]: in the test with endogenous antizyme (0.4 mM exogenous polyamine), the “Fold Increase (antizyme vs control)” value is on record as 1.2 and the Antizyme is on record as 2.6 ± 0.5 units/mg. For the same compound, in the test on endogenous antizyme (0.8 mM exogenous polyamine), the “Fold Increase (antizyme vs control)” value was 1.4 and the Antizyme is on record as 3.0 ± 0.6 units/mg. Moreover, in test [3], the Maximal frameshifting stimulation entry is given as “approximately 40%” and the “Fold increase of antizyme 1 frameshifting upon polyamine addition to DFMO pre-treated cells” value was approximately 10 fold.
As for `NCCCCN` [Putrescine, putrescine], in the test on endogenous antizyme (2 mM exogenous polyamine), the “Fold Increase (antizyme vs control)” value was determined as 1.5 and the Antizyme was 3.0 ± 0.7 units/mg. In addition, in test [3], the Maximal frameshifting stimulation entry is “approximately 40%” and the “Fold increase of antizyme 1 frameshifting upon polyamine addition to DFMO pre-treated cells” value was approximately 10 fold.
Take `N=C(N)NCCCCN` [agmatine]: the “Effect on amount of frameshifting, antizyme 3 frameshifting sequence” value in test [5] (0-16 mM agmatine, FIG. 7A) was “no increase in frameshifting was observed”. Besides, the “Effect on amount of frameshifting, p2Lucaz2” value in test [2] (0-16 mM agmatine, FIG. 7A) was “significantly increased the amount of frameshifting observed”. Also, the “Effect on amount of frameshifting, p2Lucaz1” value in test [3] (0-16 mM agmatine, FIG. 7A) was “significantly increased the amount of frameshifting observed”.
`NCCCCCN` [cadaverine]: the “Effect on amount of frameshifting, antizyme 3 frameshifting sequence” value in test [5] (0-32 mM cadaverine, FIG. 7B) is reported as “no increase in frameshifting was observed”. In addition, the “Effect on amount of frameshifting, p2Lucaz2” value in test [2] (0-32 mM cadaverine, FIG. 7B) is “effective for significantly increasing the amount of frameshifting observed”. Moreover, the “Effect on amount of frameshifting, p2Lucaz1” value in test [3] (0-32 mM cadaverine, FIG. 7B) is recorded as “effective for significantly increasing the amount of frameshifting observed”.
